From patent US9149035B2, “Antimicrobial composition” (CONVATEC TECHNOLOGIES, INC., priority 2005, dated 2015) come the findings set out here.

Structures are written as SMILES. Read-outs that look alike come from different tables or passages of the source.

Test [1] concerns Seven antibiotic resistant microorganisms.
Test [2] has as its system Pseudomonas aeruginosa, Serratia marcescens, vancomycin resistant Enterococcus (VRE) and methicillin resistant Staphylococcus aureus (MRSA). To be noted: EDTA 0.1-40% weight by volume; planktonic and biofilm state.
In test [3] the test system is Serratia marcescens.
Test [4] concerns Ps aeruginosa. Briefly: Corrected zone of inhibition of hydrated wound dressings on Poloxamer gel with MHB (biofilm bacteria). Format: cell-based. To be noted: bacteria grown in the biofilm state (poloxamer gel). An excerpt:
The antimicrobial dressings used in this study were ActicoatTM (Smith and Nephew) and AQUACEL® Ag Hydrofiber® (ConvaTec). Acticoat is a nanocrystalline silver antimicrobial barrier dressing which consists of a rayon/polyester non-woven inner core laminated between two layers of silver-coated high density polyethylene mesh (HDPE). The layers are held together with ultrasound […] comprised of sodium carboxymethylcellulose Hydrofiber® and ionic silver. The silver cations in AQUACEL® Ag are associated with the individual highly absorbent anionic carboxymethylcellulose fibres of the Hydrofiber® dressing. AQUACEL® Hydrofiber® dressing (without silver) was also used as a control. […] The mean dressing size was then subtracted from the mean zone of inhibition to determine the corrected zone of inhibition (CZOI). A CZOI test allows for any inherent variability in the shape and size of zones created by the silver dressings which may change in dimension following hydration.

Test [5] has as its system C. kruzei. To be noted: poloxamer gel (biofilm state) vs without.
In test [6] the test system is Ps aeruginosa. Particulars: poloxamer gel (biofilm state) vs without.

For `O=C(O)CN(CCN(CC(=O)O)CC(=O)O)CC(=O)O` [EDTA, Ethylenediaminetetra-acetic acid], the Zones of inhibition entry in test [1] (0.1% EDTA, any organism studied) was “no zones of inhibition were evident”; in test [1] (40% EDTA, all organisms tested) it was “evident”; in test [3] (5% EDTA) it was “no zones”; in test [3] (10% EDTA), “no zones”. In addition, in test [1] (poloxamer gel (biofilm state) vs without), the “Zones of inhibition in the presence of poloxamer compared with planktonic” value is “slightly smaller”. Moreover, in test [2], the Killing of microorganisms result is “effective in killing”. The “Effect of EDTA on the effects of ionic silver” value in test [4] is given as “enhances”. Moreover, the “Zones of inhibition with poloxamer compared with without” value in test [5] and in test [6] was “larger zones” throughout.
